Data published in paper PMC12259270, “Sensory neuron–expressed FGF13 controls nociceptive signaling in diabetic neuropathy models” (The Journal of Clinical Investigation, 2025).
Values joined by “and” are separate entries in the source; they are usually repeats but may differ in a detail not shown here. Equal entries are not always repeated. Residues, ends and D or L forms follow the SMILES beside them. *: point of attachment. Cbz = O=C(OCc1ccccc1)*; OtBu = CC(C)(C)O*

Legend:
[1] = tested on: C57BL/6 mice; experiment: Mechanical sensitivity (von Frey, LVF/HVF) after intraplantar injection, mice without capsaicin; format: in vivo, mouse; design: key to LVF Mean / HVF Mean: % withdrawals from 10 consecutive von Frey stimulations; conditions: Bup 7 mg/mL, without capsaicin
Method: (§1) Experiments were performed on 6- to 12-week-old male C57BL/6 mice (The Jackson Laboratory, Bar Harbor, ME) housed in the AAALAC-accredited facility at the University of Texas Medical Branch. Mice were group-housed with up to 5 mice per cage on a 12-to-12-hour light–dark cycle and had access to water and food ad libitum. All protocols were approved by the Institutional Animal Care and Use Committee (IACUC) at the University of Texas Medical Branch and in accordance with the National Institutes of Health (NIH) guidelines.
(§2) PW164 and ZL192 were dissolved in DMSO and saline in a ratio of 1:10. 0.1% capsaicin (10% ethanol, 10% Tween-20 in saline; Sigma-Aldrich). All the compounds were injected at the center of the hind paw. The control group received a DMSO-saline mixture. […]
(§3) Assessment of mechanical sensitivity
Mechanical sensitivity was assessed using von Frey filaments (VFF 0.1g and 1.0 g force) in mice that were either naïve or received intraplantar (i.p.) injection of capsaicin. VFFs were applied at the injection site (capsaicin or drug unilateral intraderma l injection at the center of the hind paw using a 30 -G needle). VFF of 1.0 g force, which evokes a 40–60% withdrawal response in the naïve condition, was used to detect hyperalgesia, and VFF of 0.1 g […]
mechanical sensitivity was expressed as % withdrawals from 10 consecutive stimulations. […]

[2] = tested on: C57BL/6 mice; experiment: Capsaicin-induced mechanical hypersensitivity (von Frey); format: in vivo, mouse; design: LVF Mean / HVF Mean / MECHANICAL LVF / MECHANICAL HVF: unit not given here; conditions: Cap + Bup 7 mg/mL
Text: (§4) FGF13 is a neuronal gene ubiquitously transcribed in DRG neuronal subtypes ([43]–[46]). To investigate neuronal subtype enrichment of the FGF13 transcript, we examined a gene panel including FGF13, SCN9A, and several marker genes in mouse single-cell transcriptomic data (Supplemental Figure 10) ([43]–[46]). […] Critically, putative silent nociceptors marked by somatostatin (SST), and the nicotinic cholinergic receptor α-3 subunit (CHRNA3) contribute to development of inflammatory mechanical hyperalgesia ([47]). […] We next determined if PW164 modulation of the FGF13/Nav1.7 complex could suppress nociceptive behaviors in WT mice. We tested whether intraplantar (i.pl.) injection (5 μL) of PW164 altered hind paw withdrawal in response to low or high intensity von Frey filament (LVF or HVF, respectively) mechanical stimulation (Figure 3A). […] Next, we evaluated PW164’s effect on mechanical and thermal hindpaw sensitivity in capsaicin-induced nociceptive hypersensitivity models. […] Next, we performed in vivo target validation in WT mice that received an intrathecal (i.t.) injection in L5 of AAV2-shFGF13 (6 μL, viral titers 1 × 10^12 vector genomes (vg)/mL); a control group received an equal number of AAV2-shCTRL particles (Figure 3C).
as §1, §2
Bupivacaine was prepared from a 1:2 dilution with sterile 0.9% saline and locally injected in the center of the paw at 7 mg/ml.
(§5) AAV2 viral particles packaged by the University of North Carolina Gene Therapy Core Facility (viral titer ranging […]
(§6) Before intrathecal injections in the lumbar region, mice were maintained in an anesthetizing box with 2% isoflurane to induce unconsciousness. Six microliters of viral vector were gently injected into the CSF through a 30-gauge needle with a Hamilton syringe in the lumbar area between vertebrae L4 and L5 by gently gripping the iliac crest of the mouse and inserting the needle with an angle of 45°. The correct procedure was confirmed by the mouse’s tail reflexiv e flick.
as §3
Mechanical sensitivity was assessed using von Frey filaments (VFF 0.1g and 1.0 g force) in mice that were either naïve or received intraplantar (i.p.) injection of capsaicin. VFFs were applied at the injection site (capsaicin or […]

[3] = tested on: FGF13 and Nav1.7 colocalization in hIPSC-derived sensory neurons; experiment: Immunocytochemistry, FGF13 and Nav1.7 colocalization in RealDRG; format: cell-based, human; conditions: Capsaicin, N 39
Method: After treatment, coverslips containing hIPSC-derived sensory neurons were fixed with 4% PFA/4% sucrose for 15 minutes, permeabilized for 5 minutes using 0.1% Triton X-100 in PBS and blocked with 10% Normal Goat Serum (ThermoFisher Scientific) for 30 minutes. Cells were stained using primary antibodies ms IgG1 Nav1.7 […]
Tubulin (Abcam, catalog # ab18207; 1:2000) overnight at 4∘C in 3% BSA. Isotype specific secondary antibodies ms IgG1 Alexa 568 (Life Technologies, catalog # A-21124; 1:200), ms IgG2a Alexa 647 (Life Technologies, […]
applied for 2 hours. After washing, cell membranes were labeled using CellBrite Cytoplasmic Membrane Dye (Biotium) according to manufacturer directions. After final washing, coverslips were mounted using ProLong Gold Antifade Mountant (ThermoFisher). hIPSC-derived sensory neurons were fixed at day 14 in buffered formalin (10 wt%/vol%, Fisher Scientific 23-305-510) for 10 minutes, permeabilized in DPBS plus Triton X-100 (0.2 vol%/vol%, MilliporeSigma, T8787-100ML), blocked in DPBS plus bovine serum albumin (1 wt%/vol%, MilliporeSigma A3059-100G) and Tween-20 (0.1 vol% MilliporeSigma P1379) for 2 hours, and incubated with primary antibodies overnight. Cultures were washed twice with blocking solution and incubated 1 hour with secondary antibodies. 4′,6-diamidino-2-phenylindole dilactate (DAPI, Thermo Fisher D3571) was added for 10 minutes before washing three times in DPBS. Antibodies used include: TUJ1 (1:250, MilliporeSigma MAB1637), […]
and Alexa Fluor 555 Donkey anti-Rabbit (1:500, Thermo Fisher Scientific A-31572). Negative controls included

[4] = tested on: C57BL/6 mice; experiment: Capsaicin-induced thermal hypersensitivity (Hargreaves); format: in vivo, mouse; conditions: Figure 3 B lower block (Vehicle vs PW 164), individual animals 1-20
Text: as §4, §1, §2, §5
as §6, with “flick. […]” for “flick.”

[5] = molecular target: T1, FGF13 (protein used in surface plasmon resonance) (UniProt Q92913-2 1-192); experiment: SPR; cell-free; FGF13 with Nav1.7 CTD, no compound; conditions: both partners purified
T1 construct: Fibroblast growth factor 13; also called fibroblast growth factor 13
T1 sequence (looked up): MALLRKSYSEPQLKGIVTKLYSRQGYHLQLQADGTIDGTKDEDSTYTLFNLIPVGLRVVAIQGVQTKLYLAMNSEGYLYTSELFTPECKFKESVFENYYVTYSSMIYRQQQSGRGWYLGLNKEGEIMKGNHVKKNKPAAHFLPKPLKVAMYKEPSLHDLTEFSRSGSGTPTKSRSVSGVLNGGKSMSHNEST

CCCCN1CCCCC1C(=O)Nc1c(C)cccc1C (racemic) [Bup]
HVF Mean ([1]; Time (h) 0): 52
HVF Mean ([1]; Time (h) 0.5): 8
HVF Mean ([1]; Time (h) 1): 58
HVF Mean ([1]; Time (h) 1.5): 54
HVF Mean ([1]; Time (h) 2): 54
HVF Mean ([2]; Time (h) 0): 52
LVF Mean ([2]; Time (h) 0): 0
HVF Mean ([2]; Time (h) 0.5): 100
LVF Mean ([2]; Time (h) 0.5): 66
HVF Mean ([2]; Time (h) 0.75): 6
LVF Mean ([2]; Time (h) 0.75): 0
HVF Mean ([2]; Time (h) 1): 58
LVF Mean ([2]; Time (h) 1): 0
HVF Mean ([2]; Time (h) 1.5): 98
LVF Mean ([2]; Time (h) 1.5): 22
HVF Mean ([2]; Time (h) 2): 100
LVF Mean ([2]; Time (h) 2): 52

COc1cc(CNC(=O)CCCC/C=C/C(C)C)ccc1O [Capsaicin]
Figure S6C, Mean ([3]; Distance 7.1166 microns): 236.646
Figure S6C, Mean ([3]; Distance 7.2484 microns): 412.139
Figure S6C, Mean ([3]; Distance 7.3801 microns): 777.284
Figure S6C, Mean ([3]; Distance 7.5119 microns): 1294.71
Figure S6C, Mean ([3]; Distance 7.6437 microns): 1747.86
Figure S6C, Mean ([3]; Distance 7.7755 microns): 1996.82
Figure S6C, Mean ([3]; Distance 7.9073 microns): 2041.85
Figure S6C, Mean ([3]; Distance 8.0391 microns): 2010.31
Figure S6C, Mean ([3]; Distance 8.1709 microns): 1934.86
Figure S6C, Mean ([3]; Distance 8.3027 microns): 1848.17
Figure S6C, Mean ([3]; Distance 8.4344 microns): 1793.9
Figure S6C, Mean ([3]; Distance 8.5662 microns): 1740.61
Figure S6C, Mean ([3]; Distance 8.698 microns): 1651.29
Figure S6C, Mean ([3]; Distance 8.8298 microns): 1564.27
Figure S6C, Mean ([3]; Distance 8.9616 microns): 1524.73
Figure S6C, Mean ([3]; Distance 9.0934 microns): 1474.75

COC(=O)[C@@H](NC(=O)[C@H](CCC(=O)OC(C)(C)C)NC(=O)[C@H](CC(C)C)NC(=O)[C@@H]1CCCN1C(=O)OCc1ccccc1)C(C)C [PW 164] (Cbz-PLE(OtBu)V-OMe)
Paw withdrawal latency ([4]; Time (h) 0.5): 6.8 s and 5.5 s (2×) and 2.93 s and 6.4 s and 5.33 s and 6.3 s and 4.8 s and 4.23 s and 4.87 s and 3.47 s and 5.6 s and 4.1 s and 4.4 s and 2.87 s and 8.3 s and 5.93 s and 5 s and 4.2 s and 6.1 s
Paw withdrawal latency ([4]; Time (h) 1): 11.43 s and 10.43 s and 13.57 s and 12.1 s and 12.5 s and 12.33 s and 11.6 s and 11.33 s and 13.2 s and 15.4 s and 16 s and 12.63 s and 16.3 s and 11.83 s and 17.37 s and 20 s and 12.8 s and 12.17 s and 18.37 s and 16.47 s
Paw withdrawal latency ([4]; Time (h) 1.5): 12.6 s and 12.77 s and 10.5 s and 11.3 s and 13.4 s and 7.9 s and 8 s and 9.27 s and 11.73 s and 9.97 s and 16.43 s and 14.37 s and 15.37 s and 12.23 s and 13.13 s and 18.63 s and 15.2 s and 17.17 s and 10.23 s and 9.23 s
Paw withdrawal latency ([4]; Time (h) 2.5): 12.63 s and 12.73 s and 10.73 s and 10.97 s and 13.83 s and 8.87 s and 8.63 s and 9.6 s and 15.4 s and 19.5667 s and 15.7667 s and 13.6 s and 14.9333 s (2×) and 14.7333 s and 11.4667 s and 11.1333 s and 10.5667 s and 15.1 s and 13.2 s
Paw withdrawal latency ([4]; Time (h) BN (baseline)): 12.77 s and 12 s and 12.53 s and 10.8 s and 11.1 s and 12.43 s and 10.77 s (2×) and 12.33 s (2×) and 12.47 s (2×) and 14.53 s and 12.9 s and 11.27 s (2×) and 13.5 s and 11.07 s and 12.6 s and 10.67 s

B1: Nav1.7 CTD (fragment used in surface plasmon resonance) (domain or fragment)
chain: QEDVSATVIQRAYRRYRLRQNVK
modifications: synthetic peptide from supplementary SPR methods (stated as residues 1876-1899, 23 aa); used unconjugated as analyte over immobilized FGF13, and biotinylated (biotin position not stated) when …
Kd [5]: 75 ± 3 nM
